Measured values as given in US20080051387A1, “TETRAHYDROPYRIDO[3,4-D]PYRIMIDINES AND RELATED ANALOGUES” (priority 2006, published 2008).

Biological target: T1, chimeric human H3 receptor (Homo sapiens, UniProt Q9Y5N1)
T1 construct: rat Galpha-i2 (Gnai2, rat); made in house; host or cells: Sf9 insect cells (baculovirus); P2 membranes
Assay: Chimeric human H3 receptor screening GTP binding assay (inhibition of histamine-stimulated GTP-gamma35S binding, Example 8)
Type: biochemical
Settings: 1 h; assay described in Example 8; symbol "!" in column headed Ki; read-out: Ki ("!": percent inhibition of agonist-induced GTP-gammaS binding to H3)
Summary of the method: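 Sf9 membranes co-expressing chimeric human H3 receptor and heterotrimeric G-protein (35 μg protein) incubated 60 min at room temperature with 4 μM compound, 1 μM histamine and 125 pM GTP-gamma35S in pH 7.4 buffer with 10 μM GDP. Filter-bound radioactivity, nonspecific (10 μM GTP-gammaS) subtracted, reported as % inhibition of histamine signal.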

T1 sequence (Q9Y5N1 with tags, fused parts or gaps): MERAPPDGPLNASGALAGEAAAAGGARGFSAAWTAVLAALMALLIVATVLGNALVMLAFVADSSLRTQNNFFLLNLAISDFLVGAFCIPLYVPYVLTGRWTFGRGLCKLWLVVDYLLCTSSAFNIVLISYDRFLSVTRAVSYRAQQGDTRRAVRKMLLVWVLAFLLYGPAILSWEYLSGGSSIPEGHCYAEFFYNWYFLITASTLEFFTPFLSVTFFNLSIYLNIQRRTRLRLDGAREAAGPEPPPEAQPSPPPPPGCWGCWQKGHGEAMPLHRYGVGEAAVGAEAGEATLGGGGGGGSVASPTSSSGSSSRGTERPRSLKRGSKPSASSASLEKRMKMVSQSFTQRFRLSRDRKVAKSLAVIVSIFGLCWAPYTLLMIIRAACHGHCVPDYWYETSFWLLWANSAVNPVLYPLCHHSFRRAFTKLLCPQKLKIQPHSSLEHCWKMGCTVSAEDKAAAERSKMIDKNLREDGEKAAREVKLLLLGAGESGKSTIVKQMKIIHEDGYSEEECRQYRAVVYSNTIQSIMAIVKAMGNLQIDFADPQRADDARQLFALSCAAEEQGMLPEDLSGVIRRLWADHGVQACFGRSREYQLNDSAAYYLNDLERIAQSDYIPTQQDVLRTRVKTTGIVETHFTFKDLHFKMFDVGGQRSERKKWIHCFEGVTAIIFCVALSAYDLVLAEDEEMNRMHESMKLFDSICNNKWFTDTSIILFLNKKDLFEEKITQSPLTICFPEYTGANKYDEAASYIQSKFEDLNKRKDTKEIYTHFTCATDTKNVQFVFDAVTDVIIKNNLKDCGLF

Inhibition at 4 µM, ≥ 90%:
COc1cccc(/C=C/C(=O)N2CCc3cnc(N4CCN(C5CCC5)CC4)nc3CC2)c1 [Compound 564, 2-(4-cyclobutylpiperazin-1-yl)-7-[(2E)-3-(3-methoxyphenyl)prop-2-enoyl]-6,7,8,9-tetrahydro-5H-pyrimido[4,5-d]azepine]

Same assay, conditions: 1 h; assay of Example 8; symbol "!" in column headed Ki; read-out: percent inhibition of agonist-induced GTP-gammaS binding to H3

Inhibition at 4 µM, ≥ 90%:
O=C(/C=C/c1c(F)cccc1Cl)N1CCc2cnc(N3CCN(C4CCC4)CC3)nc2CC1 [Compound 585, 7-[(2E)-3-(2-chloro-6-fluorophenyl)prop-2-enoyl]-2-(4-cyclobutylpiperazin-1-yl)-6,7,8,9-tetrahydro-5H-pyrimido[4,5-d]azepine]
O=C(Cc1cccc(Cl)c1)N1CCc2cnc(N3CCN(C4CCC4)CC3)nc2CC1 [Compound 284, 7-[(3-chlorophenyl)acetyl]-2-(4-cyclobutylpiperazin-1-yl)-6,7,8,9-tetrahydro-5H-pyrimido[4,5-d]azepine]
COc1ccc(/C=C/C(=O)N2CCc3cnc(N4CCN(C5CCC5)CC4)nc3CC2)c(Cl)c1OC [Compound 586, 7-[(2E)-3-(2-chloro-3,4-dimethoxyphenyl)prop-2-enoyl]-2-(4-cyclobutylpiperazin-1-yl)-6,7,8,9-tetrahydro-5H-pyrimido[4,5-d]azepine]
CCN1CCc2cnc(N3CCN(C4CCC4)CC3)nc2CC1 [Compound 245, 2-(4-cyclobutylpiperazin-1-yl)-7-ethyl-6,7,8,9-tetrahydro-5H-pyrimido[4,5-d]azepine]

Same assay, conditions: symbol ! in Ki; test compound 4 μM, 1 μM histamine; read-out: percent inhibition of agonist-induced GTP-gammaS binding to H3

Inhibition at 4 µM, ≥ 90%:
c1nc(N2CCN(C3CCC3)CC2)nc2c1CN(CC1CC1)CC2 [Compound 634, 2-(4-cyclobutylpiperazin-1-yl)-6-(cyclopropylmethyl)-5,6,7,8-tetrahydropyrido[4,3-d]pyrimidine]
CCC(CC)CN1CCc2ncnc(N3CCN(C4CCC4)CC3)c2CC1 [Compound 168, 4-(4-cyclobutylpiperazin-1-yl)-7-(2-ethylbutyl)-6,7,8,9-tetrahydro-5H-pyrimido[4,5-d]azepine]
Cc1cccc(C(C)N2CCc3c(ncnc3N3CCN(C4CCC4)CC3)C2)c1 (centres unmarked) [Compound 105, 4-(4-cyclobutylpiperazin-1-yl)-7-[1-(3-methylphenyl)ethyl]-5,6,7,8-tetrahydropyrido[3,4-d]pyrimidine]
c1ccc(CN2CCc3c(ncnc3N3CCC(N4CCCCCC4)CC3)C2)cc1 [Compound 18, 4-(4-azepan-1-ylpiperidin-1-yl)-7-benzyl-5,6,7,8-tetrahydropyrido[3,4-d]pyrimidine]
c1cncc(CN2CCc3c(ncnc3N3CCN(C4CCC4)CC3)C2)c1 [Compound 75, 4-(4-cyclobutylpiperazin-1-yl)-7-(pyridin-3-ylmethyl)-5,6,7,8-tetrahydropyrido[3,4-d]pyrimidine]
c1nc(N2CCN(C3CCC3)CC2)nc2c1CN(CC1CCOC1)CC2 (centres unmarked) [Compound 636, 2-(4-cyclobutylpiperazin-1-yl)-6-(tetrahydrofuran-3-ylmethyl)-5,6,7,8-tetrahydropyrido[4,3-d]pyrimidine]
Cc1cccc(CN2CCc3c(ncnc3N3CCN(C4CCC4)CC3)C2)n1 [Compound 74, 4-(4-cyclobutylpiperazin-1-yl)-7-[(6-methylpyridin-2-yl)methyl]-5,6,7,8-tetrahydropyrido[3,4-d]pyrimidine]
CCC(CC)C(C)N1CCc2c(ncnc2N2CCN(C3CCC3)CC2)C1 (centres unmarked) [Compound 123, 4-(4-cyclobutylpiperazin-1-yl)-7-(2-ethyl-1-methylbutyl)-5,6,7,8-tetrahydropyrido[3,4-d]pyrimidine]

Same assay, conditions: test compound 4 μM, 1 μM histamine; read-out: percent inhibition of agonist-induced GTP-gammaS binding to H3

Inhibition at 4 µM, ≥ 90%:
CC(=O)c1ccc(N2CCc3cnc(N4CCN(C5CCC5)CC4)nc3CC2)cc1 [Compound 11, 1-{4-[2-(4-Cyclobutyl-piperazin-1-yl)-5,6,8,9-tetrahydro-pyrimido[4.5-d]azepin-7-yl]-phenyl}-ethanone]
